Laboratory results: ChEMBL document CHEMBL5113515, “The Discovery of GSK3640254, a Next-Generation Inhibitor of HIV-1 Maturation” (J Med Chem, 2022)

Key:
[1] = test system: Human immunodeficiency virus 1; assay: Antiviral activity against HIV1 wild type NL (4 to 3) infected in human MT2 cells measured after 4 to 5 days in presence of human serum by dual-luciferase reporter assay; assay type: functional, organism-based
[2] = test system: Human immunodeficiency virus 1; assay: Antiviral activity against HIV1 harbouring T332S/V362I/prR41G mutant infected in human MT2 cells measured after 4 to 5 days by dual-luciferase reporter assay; assay type: functional, organism-based; conditions: Human immunodeficiency virus 1, MT2
[3] = test system: Human immunodeficiency virus 1; assay: Antiviral activity against HIV1 wild type NL (4 to 3) infected in human MT2 cells measured after 4 to 5 days by dual-luciferase reporter assay; assay type: functional, organism-based; conditions: Human immunodeficiency virus 1, MT2
MT2 = assay: Cytotoxicity in human MT2 cells assessed as reduction in cell viability; assay type: functional
[4] = test system: Human immunodeficiency virus 1; assay: Antiviral activity against HIV1 harbouring V362I/V370A mutant infected in human MT2 cells measured after 4 to 5 days by dual-luciferase reporter assay; assay type: functional, organism-based; conditions: Human immunodeficiency virus 1, MT2
[5] = test system: Human immunodeficiency virus 1; assay: Antiviral activity against HIV1 harbouring deltaV370/T371A mutant infected in human MT2 cells measured after 4 to 5 days by dual-luciferase reporter assay; assay type: functional, organism-based; conditions: Human immunodeficiency virus 1, MT2
[6] = AUC in rat at 5 mg/kg, po; assay type: ADME, organism-based; set-up: dose 5 mg/kg, route po; conditions: in vivo, read-out: AUC
[7] = Human immunodeficiency virus 1, MT2

Row | Compound | EC50 [1, 7] | EC50 [2] | EC50 [3] | CC50 (MT2) | EC50 [4] | EC50 [5] | AUC [6] | EC50 ([1]; mt2)
1 | C=C(C)[C@@H]1CC[C@]2(NCCN3CCS(=O)(=O)CC3)CC[C@]3(C)[C@H](CC[C@@H]4[C@@]5(C)CC=C(C6=CCC(CC(=O)O)(C(=O)O)CC6)C(C)(C)[C@@H]5CC[C@]43C)[C@@H]12 (stereo not given in full) | 135 nM | 14.1 nM | 3.5 nM | 6400 nM |  |  |  | 
2 | C=C(C)[C@@H]1CC[C@]2(NCCN3CCS(=O)(=O)CC3)CC[C@]3(C)[C@H](CC[C@@H]4[C@@]5(C)CC=C(C6=CCC(O)(C(=O)O)CC6)C(C)(C)[C@@H]5CC[C@]43C)[C@@H]12 (stereo not given in full) | 13.1 nM | 28.5 nM | 2 nM | 6400 nM | 6 nM | 2.4 nM |  | 
3 | C=C(C)[C@@H]1CC[C@]2(NCCN3CCS(=O)(=O)CC3)CC[C@]3(C)[C@H](CC[C@@H]4[C@@]5(C)CC=C(C6=CCC(OC(C)C)(C(=O)O)CC6)C(C)(C)[C@@H]5CC[C@]43C)[C@@H]12 (stereo not given in full) | 48.5 nM | 987 nM | 5 nM | 9700 nM |  |  |  | 
4 | C=C(C)[C@@H]1CC[C@]2(NCCN3CCS(=O)(=O)CC3)CC[C@]3(C)[C@H](CC[C@@H]4[C@@]5(C)CC=C(C6=CCC(CC7CC7)(C(=O)O)CC6)C(C)(C)[C@@H]5CC[C@]43C)[C@@H]12 (stereo not given in full) | 48.5 nM | 54.1 nM | 4.5 nM | 16200 nM |  |  |  | 
5 | C=C(C)[C@@H]1CC[C@]2(NCCN3CCS(=O)(=O)CC3)CC[C@]3(C)[C@H](CC[C@@H]4[C@@]5(C)CC=C(C6=CC7C(C6)C7C(=O)O)C(C)(C)[C@@H]5CC[C@]43C)[C@@H]12 (stereo not given in full) | 30.9 nM | 299 nM | 2.3 nM | 6400 nM | 657 nM | 16.7 nM |  | 
6 | C=C(C)[C@@H]1CC[C@]2(NCCN3CCC(S(C)(=O)=O)CC3)CC[C@]3(C)[C@H](CC[C@@H]4[C@@]5(C)CC=C(C6=CCC(C(=O)O)(C(F)F)CC6)C(C)(C)[C@@H]5CC[C@]43C)[C@@H]12 (stereo not given in full) | 12.7 nM | 6.6 nM | 1.9 nM | 11000 nM | 2.5 nM | 1.3 nM | 17.9 µM·h | 
7 | C=C(C)[C@@H]1CC[C@]2(NCCN3CCC(S(C)(=O)=O)CC3)CC[C@]3(C)[C@H](CC[C@@H]4[C@@]5(C)CC=C(C6=CC[C@@](CF)(C(=O)O)CC6)C(C)(C)[C@@H]5CC[C@]43C)[C@@H]12 | 18.3 nM | 8 nM | 1.9 nM | 13400 nM |  | 5.8 nM | 19.1 µM·h | 
8 | C=C(C)[C@@H]1CC[C@]2(NCCN3CCC(S(C)(=O)=O)CC3)CC[C@]3(C)[C@H](CC[C@@H]4[C@@]5(C)CC=C(C6=CCC(CO)(C(=O)O)CC6)C(C)(C)[C@@H]5CC[C@]43C)[C@@H]12 (stereo not given in full) | 12.6 nM | 4.6 nM | 1.1 nM | 9470 nM | 1.2 nM | 1 nM | 2.37 µM·h | 
9 | C=C(C)[C@@H]1CC[C@]2(NCCN3CCS(=O)(=O)CC3)CC[C@]3(C)[C@H](CC[C@@H]4[C@@]5(C)CC=C(C6=CCC(C)(C(=O)O)CC6)C(C)(C)[C@@H]5CC[C@]43C)[C@@H]12 (stereo not given in full) | 12 nM | 4.8 nM | 1.5 nM | 13100 nM |  | 9.8 nM | 5.86 µM·h | 
10 | C=C(C)[C@@H]1CC[C@]2(NCCN3CCS(=O)(=O)CC3)CC[C@]3(C)[C@H](CC[C@@H]4[C@@]5(C)CC=C(C6=CCC(COCC)(C(=O)O)CC6)C(C)(C)[C@@H]5CC[C@]43C)[C@@H]12 (stereo not given in full) | 21.8 nM | 11.5 nM | 3.2 nM | 5100 nM |  |  |  | 
11 | C=C(C)[C@@H]1CC[C@]2(NCCN3CCC(S(C)(=O)=O)CC3)CC[C@]3(C)[C@H](CC[C@@H]4[C@@]5(C)CC=C(C6=CC[C@@H](C(=O)O)CC6)C(C)(C)[C@@H]5CC[C@]43C)[C@@H]12 | 4.9 nM | 18.8 nM |  | 9100 nM |  |  | 9.18 µM·h | 
12 | C=C(C)[C@@H]1CC[C@]2(NCCN3CCC(S(C)(=O)=O)CC3)CC[C@]3(C)[C@H](CC[C@@H]4[C@@]5(C)CC=C(C6=CCC(CCCOC)(C(=O)O)CC6)C(C)(C)[C@@H]5CC[C@]43C)[C@@H]12 (stereo not given in full) | 19.3 nM | 11.1 nM | 2 nM | 12100 nM |  |  |  | 
13 | C=C(C)[C@@H]1CC[C@]2(NCCN3CCS(=O)(=O)CC3)CC[C@]3(C)[C@H](CC[C@@H]4[C@@]5(C)CC=C(C6=CCC(COC)(C(=O)O)CC6)C(C)(C)[C@@H]5CC[C@]43C)[C@@H]12 (stereo not given in full) | 6.7 nM | 13.9 nM | 1.5 nM | 4700 nM |  |  |  | 
14 | C=C(C)[C@@H]1CC[C@]2(NCCN3CCS(=O)(=O)CC3)CC[C@]3(C)[C@H](CC[C@@H]4[C@@]5(C)CC=C(C6=CCC(C(=O)O)CC6)C(C)(C)[C@@H]5CC[C@]43C)[C@@H]12 (stereo not given in full) |  |  |  | 13900 nM |  |  | 12.9 µM·h | 
15 | C=C(C)[C@@H]1CC[C@]2(NCCN3CCS(=O)(=O)CC3)CC[C@]3(C)[C@H](CC[C@@H]4[C@@]5(C)CC=C(C6=CCC(CC)(C(=O)O)CC6)C(C)(C)[C@@H]5CC[C@]43C)[C@@H]12 (stereo not given in full) | 37.9 nM | 9.7 nM | 3.6 nM | 27500 nM |  |  |  | 
16 | C=C(C)[C@@H]1CC[C@]2(NCCN3CCS(=O)(=O)CC3)CC[C@]3(C)[C@H](CC[C@@H]4[C@@]5(C)CC=C(C6=CC7(C6)CC(C(=O)O)C7)C(C)(C)[C@@H]5CC[C@]43C)[C@@H]12 (stereo not given in full) |  | 363 nM |  | 10700 nM | 48.5 nM | 5.8 nM | 11.7 µM·h | 
17 | C=C(C)[C@@H]1CC[C@]2(NCCN3CCC(S(C)(=O)=O)CC3)CC[C@]3(C)[C@H](CC[C@@H]4[C@@]5(C)CC=C(C6=CC[C@](CF)(C(=O)O)CC6)C(C)(C)[C@@H]5CC[C@]43C)[C@@H]12 | 14.7 nM | 6.5 nM | 2.3 nM | 7100 nM |  | 8.2 nM | 24.1 µM·h | 
18 | C=C(C)[C@@H]1CC[C@]2(NCCN3CCS(=O)(=O)CC3)CC[C@]3(C)[C@H](CC[C@@H]4[C@@]5(C)CC=C(C6=CCC(CC(=O)O)CC6)C(C)(C)[C@@H]5CC[C@]43C)[C@@H]12 (stereo not given in full) | 12 nM | 124 nM | 13.1 nM | 6400 nM | 15.7 nM | 5.3 nM |  | 
19 | C=C(C)[C@@H]1CC[C@]2(NCCN3CCS(=O)(=O)CC3)CC[C@]3(C)[C@H](CC[C@@H]4[C@@]5(C)CC=C(C6=CC7(C6)CC(C(=O)O)(C(=O)O)C7)C(C)(C)[C@@H]5CC[C@]43C)[C@@H]12 |  |  | 1.3 nM | > 30000 nM |  |  |  | 
20 | C=C(C)[C@@H]1CC[C@]2(NCCN3CCS(=O)(=O)CC3)CC[C@]3(C)[C@H](CC[C@@H]4[C@@]5(C)CC=C(C6=CCC(CCO)(C(=O)O)CC6)C(C)(C)[C@@H]5CC[C@]43C)[C@@H]12 (stereo not given in full) | 85.8 nM | 15.9 nM | 4.6 nM | 12700 nM | 4.5 nM | 5.3 nM |  | 
21 | C=C(C)[C@@H]1CC[C@]2(NCCN3CCS(=O)(=O)CC3)CC[C@]3(C)[C@H](CC[C@@H]4[C@@]5(C)CC=C(C6=CCC(CO)(C(=O)O)CC6)C(C)(C)[C@@H]5CC[C@]43C)[C@@H]12 (stereo not given in full) | 5.9 nM | 25.6 nM | 4 nM | 14200 nM | 1.9 nM | 4.6 nM |  | 
22 | C=C(C)[C@@H]1CC[C@]2(NCCN3CCS(=O)(=O)CC3)CC[C@]3(C)[C@H](CC[C@@H]4[C@@]5(C)CC=C(C6=CCC(CF)(C(=O)O)CC6)C(C)(C)[C@@H]5CC[C@]43C)[C@@H]12 (single isomer, unassigned) [FIPRAVIRIMAT] |  | 9.4 nM | 2 nM | 13300 nM |  | 1.8 nM | 6.98 µM·h | 6.6 nM
23 | C=C(C)[C@@H]1CC[C@]2(NCCN3CCS(=O)(=O)CC3)CC[C@]3(C)[C@H](CC[C@@H]4[C@@]5(C)CC=C(C6=CCC(C(=O)O)(c7ccccc7)CC6)C(C)(C)[C@@H]5CC[C@]43C)[C@@H]12 (stereo not given in full) | 15.1 nM | 31.2 nM | 7.7 nM | 13500 nM |  |  |  | 
24 | C=C(C)[C@@H]1CC[C@]2(NCCN3CCS(=O)(=O)CC3)CC[C@]3(C)[C@H](CC[C@@H]4[C@@]5(C)CC=C(C6=CCC(CF)(C(=O)O)CC6)C(C)(C)[C@@H]5CC[C@]43C)[C@@H]12 (stereo not given in full) | 9.5 nM | 3.9 nM | 1.3 nM | 6800 nM |  |  | 7.7 µM·h | 
25 | C=C(C)[C@@H]1CC[C@]2(NCCN3CCS(=O)(=O)CC3)CC[C@]3(C)[C@H](CC[C@@H]4[C@@]5(C)CC=C(C6=CCC(C(=O)O)(C(=O)O)CC6)C(C)(C)[C@@H]5CC[C@]43C)[C@@H]12 |  | 292 nM |  | 18600 nM |  |  |  | 
26 | C=C(C)[C@@H]1CC[C@]2(NCCN3CCC(S(C)(=O)=O)CC3)CC[C@]3(C)[C@H](CC[C@@H]4[C@@]5(C)CC=C(C6=CCC(CC(F)F)(C(=O)O)CC6)C(C)(C)[C@@H]5CC[C@]43C)[C@@H]12 (stereo not given in full) | 9.6 nM | 4 nM | 1.4 nM | 7200 nM |  |  | 4.29 µM·h | 
27 | C=C(C)[C@@H]1CC[C@]2(NCCN3CCS(=O)(=O)CC3)CC[C@]3(C)[C@H](CC[C@@H]4[C@@]5(C)CC=C(C6=CCC(OC)(C(=O)O)CC6)C(C)(C)[C@@H]5CC[C@]43C)[C@@H]12 (stereo not given in full) | 25 nM | 21.8 nM | 2.5 nM | 13100 nM |  |  | 8.24 µM·h | 
28 | C=C(C)[C@@H]1CC[C@]2(NCCN3CCC(S(C)(=O)=O)CC3)CC[C@]3(C)[C@H](CC[C@@H]4[C@@]5(C)CC=C(C6=CCC(CF)(C(=O)O)CC6)C(C)(C)[C@@H]5CC[C@]43C)[C@@H]12 (stereo not given in full) | 10.9 nM | 6.6 nM | 1.7 nM | 12400 nM |  |  | 14.7 µM·h | 
